Holding throughout (assay): relative viability (nuclei count vs DMSO), 5 days (fraction); higher = more cells survive
Compound in test [1]: C1CNCCC1C2=CC(=NN2)C3=CC=NC=C3 + O=C(CCCCCCC(=O)Nc1ccccc1)NO [Vorinostat] (partner 1 µM)
Put shortly:
(§1)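 The day after seeding in 1536-well plates, lung cancer cell lines were treated by pin tool with a single drug, or with a fixed anchor-drug dose together with five library-drug doses (not always all listed) in √10 steps. After 5 days, a combined fix-and-stain solution (final 0.05% Triton X-100, 1% formaldehyde, 1 ug/ml Hoechst) was added. Nuclei counted on 4× images gave relative viability as treated counts over vehicle counts, reported as the median of duplicate plates.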

Compound in test [2]: C[C@@H](N)c1ccc(C(=O)Nc2ccnc3[nH]ccc23)cc1 + Cc1nc(Nc2ncc(C(=O)Nc3c(C)cccc3Cl)s2)cc(N2CCN(CCO)CC2)n1 [Dasatinib] (partner 0.075 µM)
In short, it runs like this:
as §1

Compound in test [3]: C[C@@H](N)c1ccc(C(=O)Nc2ccnc3[nH]ccc23)cc1 + CC(C)C[C@H](NC(=O)[C@H](Cc1ccccc1)NC(=O)c1cnccn1)B(O)O [Bortezomib] (partner 0.002 µM)
Put shortly: as §1

Compound in the test “Tanzisertib + Phenformin”: O[C@H]1CC[C@H](Nc2ncc3nc(Nc4c(F)cc(F)cc4F)n([C@H]4CCOC4)c3n2)CC1 [Tanzisertib] + N=C(N)NC(=N)NCCc1ccccc1 [Phenformin] (partner 250 µM)
Put shortly:
as §1

In the case of UMC-11, the relative viability in test [1] (first compound 0.08 µM) stood at 0.394; in test [1] (first compound 0.8 µM), 0.419; in test [1] (first compound 2.53 µM), 0.392; in test [1] (first compound 8 µM), 0.565; in test [2] (first compound 0.04 µM), 0.543; in test [2] (first compound 0.1265 µM), 0.482. For the same cell line, the relative viability stood at 0.58 in test [2] (first compound 0.4 µM); 0.518 in test [2] (first compound 1.265 µM); 0.527 in test [2] (first compound 4 µM); 0.669 in test [3] (first compound 0.04 µM); 0.717 in test [3] (first compound 0.1265 µM); 0.768 in test [3] (first compound 0.4 µM). Also, the relative viability in test [3] (first compound 1.265 µM) is 0.286; in test [3] (first compound 4 µM), 0.415; with Tanzisertib + Phenformin (first compound 0.08 µM), 0.339; with Tanzisertib + Phenformin (first compound 0.253 µM), 0.35; with Tanzisertib + Phenformin (first compound 0.8 µM) it was 0.342; in the test with Tanzisertib + Phenformin (first compound 2.53 µM), 0.351. Further, the relative viability with Tanzisertib + Phenformin (first compound 8 µM) stood at 0.37.

The values are drawn from the supplement of paper PMC10307832.
